# Laboratory results reported in patent US20260022096A1, “NOVEL SULFONAMIDES AND THEIR USE AS NEUROPROTECTIVE AND/OR NEURORESTORATIVE AGENTS” (GENECODE, priority 2022, published 2026).
# Target: T1, GFRα1-RET (Homo sapiens, UniProt P56159)
# T1 construct: expressed in transfected cells; host or cells: MG87 murine fibroblasts, stably transfected
# T1 sequence (P56159 25-429 limits assumed): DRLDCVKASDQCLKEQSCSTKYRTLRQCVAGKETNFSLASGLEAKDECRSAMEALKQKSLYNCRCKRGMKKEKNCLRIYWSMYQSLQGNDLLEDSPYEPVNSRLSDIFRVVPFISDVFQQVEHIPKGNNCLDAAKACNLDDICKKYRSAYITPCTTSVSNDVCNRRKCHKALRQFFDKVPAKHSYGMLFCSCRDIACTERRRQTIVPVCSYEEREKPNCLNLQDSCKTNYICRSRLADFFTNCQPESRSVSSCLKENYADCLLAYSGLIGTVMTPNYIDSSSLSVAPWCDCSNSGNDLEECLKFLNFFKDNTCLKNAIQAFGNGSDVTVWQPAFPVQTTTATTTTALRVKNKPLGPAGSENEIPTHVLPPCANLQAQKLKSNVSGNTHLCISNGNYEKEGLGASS
# Test: Elk1 reporter-gene (luciferase) assay in cells expressing GFRα1-RET
# Format: cell-based
# Conditions: MG87 murine fibroblasts stably transfected with PathDetect Elk-1, GFRα1 and RET, 6 concentrations, agonist/activator activity
# Experimental: For ECso determination, a dose-response test was performed using 6 concentrations of each tested compound. Dose-response curves were fitted using the sigmoidal dose-response (variable slope) analysis in GraphPad Prism program (Graph Pad Inc) and ECso of agonist/activator activity was calculated. Dose-response experiments were all performed in duplicate, two times independently.
row,SMILES,EC50 [nM]
1,"COc1ccc(S(=O)(=O)N2CCC(c3ccccc3)CC2)cc1N1[C@@H]2CC[C@H]1CN(C(=O)c1ccc(F)cc1Cl)C2 [compound 009, (2-chloro-4-fluoro-phenyl)-[(1S,5R)-8-[2-methoxy-5-[(4-phenyl-1-piperidyl)sulfonyl]phenyl]-3,8-diazabicyclo[3.2.1]octan-3-yl]methanone]",1000 to 10000
2,"COc1ccc(S(=O)(=O)N2CCC(CCc3ccccc3)CC2)cc1N1[C@@H]2CC[C@H]1CN(C(=O)c1ccc(F)cc1Cl)C2 [compound 010, (2-chloro-4-fluoro-phenyl)-[(1S,5R)-8-[2-methoxy-5-[[4-(2-phenylethyl)-1-piperidyl]sulfonyl]phenyl]-3,8-diazabicyclo[3.2.1]octan-3-yl]methanone]",< 1000
3,"COc1ccc(S(=O)(=O)N2CCN(c3ccccc3)CC2)cc1N1[C@@H]2CC[C@H]1CN(C(=O)c1ccc(F)cc1Cl)C2 [compound 012, (2-chloro-4-fluoro-phenyl)-[(1S,5R)-8-[2-methoxy-5-(4-phenylpiperazin-1-yl)sulfonyl-phenyl]-3,8-diazabicyclo[3.2.1]octan-3-yl]methanone]",< 1000
4,COc1ccc(S(=O)(=O)N2CCN(c3ncccn3)CC2)cc1N1[C@@H]2CC[C@H]1CN(C(=O)c1ccc(F)cc1Cl)C2 [compound 013],1000 to 10000
5,COc1ccc(S(=O)(=O)N2CCN(Cc3ccccc3)CC2)cc1N1[C@@H]2CC[C@H]1CN(C(=O)c1ccc(F)cc1Cl)C2 [compound 014],1000 to 10000
6,"COc1ccc(S(=O)(=O)N2C[C@H]3CCCC[C@H]3C2)cc1N1[C@@H]2CC[C@H]1CN(C(=O)c1ccc(F)cc1Cl)C2 [compound 015, [(1S,5R)-8-[5-[[(3aS,7aR)-1,3,3a,4,5,6,7,7a-octahydroisoindol-2-yl]sulfonyl]-2-methoxy-phenyl]-3,8-diazabicyclo[3.2.1]octan-3-yl]-(2-chloro-4-fluoro-phenyl)methanone]",< 1000
7,"CCCN(C)S(=O)(=O)c1ccc(OC)c(N2[C@@H]3COC[C@H]2CN(C(=O)c2ccc(F)cc2C(F)(F)F)C3)c1 [compound 023, 3-[(1S,5R)-7-[4-fluoro-2-(trifluoromethyl)benzoyl]-3-oxa-7,9-diazabicyclo[3.3.1]nonan-9-yl]-4-methoxy-N-methyl-N-propyl-benzenesulfonamide]",10000 to 50000
8,"CCCN(C)S(=O)(=O)c1ccc(OC)c(N2C3CCC2CN(C(=O)c2ccc(F)cc2C(F)(F)F)C3)c1 [compound 024, 3-[3-[4-fluoro-2-(trifluoromethyl)benzoyl]-3,8-diazabicyclo[3.2.1]octan-8-yl]-4-methoxy-N-methyl-N-propyl-benzenesulfonamide]",1000 to 10000
9,CCCN(C)S(=O)(=O)c1ccc(F)c(N2[C@@H]3CC[C@H]2CN(C(=O)c2ccc(F)cc2Cl)C3)c1 [compound 026],1000 to 10000
10,"CCCN(C)S(=O)(=O)c1ccc(OC(F)(F)F)c(N2[C@@H]3CC[C@H]2CN(C(=O)c2ccc(F)cc2Cl)C3)c1 [compound 027, 3-[(1S,5R)-3-(2-chloro-4-fluoro-benzoyl)-3,8-diazabicyclo[3.2.1]octan-8-yl]-N-methyl-N-propyl-4-(trifluoromethoxy)benzene sulfonamide]",1000 to 10000
11,"CCCN(C)S(=O)(=O)c1cccc(N2[C@@H]3CC[C@H]2CN(C(=O)c2ccc(F)cc2Cl)C3)c1 [compound 028, 3-[(1S,5R)-3-(2-chloro-4-fluoro-benzoyl)-3,8-diazabicyclo[3.2.1]octan-8-yl]-N-methyl-N-propyl-benzenesulfonamide]",1000 to 10000
12,CCCN(C)S(=O)(=O)c1ccc(OCC)c(N2[C@@H]3CC[C@H]2CN(C(=O)c2ccc(F)cc2Cl)C3)c1 [compound 029],1000 to 10000
13,"CCCN(C)S(=O)(=O)c1ccc(OC2CCC2)c(N2[C@@H]3CC[C@H]2CN(C(=O)c2ccc(F)cc2Cl)C3)c1 [compound 030, 3-[(1S,5R)-3-(2-chloro-4-fluoro-benzoyl)-3,8-diazabicyclo[3.2.1]octan-8-yl]-4-(cyclobutoxy)-N-methyl-N-propyl-benzenesulfonamide]",1000 to 10000
14,"CCCN(C)S(=O)(=O)c1ccc(OCOC)c(N2[C@@H]3CC[C@H]2CN(C(=O)c2ccc(F)cc2Cl)C3)c1 [compound 031, 3-[(1S,5R)-3-(2-chloro-4-fluoro-benzoyl)-3,8-diazabicyclo[3.2.1]octan-8-yl]-4-(methoxymethoxy)-N-methyl-N-propyl-benzenesulfonamide]",1000 to 10000
15,"CCN(CC)S(=O)(=O)c1cnc(Cl)c(N2[C@@H]3CC[C@H]2CN(C(=O)c2ccc(F)cc2Cl)C3)c1 [compound 032, 6-chloro-5-[(1S,5R)-3-(2-chloro-4-fluoro-benzoyl)-3,8-diazabicyclo[3.2.1]octan-8-yl]-N,N-diethyl-pyridine-3-sulfonamide]",1000 to 10000
16,"CCN(CC)S(=O)(=O)c1cnc(OC)c(N2[C@@H]3CC[C@H]2CN(C(=O)c2ccc(F)cc2Cl)C3)c1 [compound 033, 5-[(1S,5R)-3-(2-chloro-4-fluoro-benzoyl)-3,8-diazabicyclo[3.2.1]octan-8-yl]-N,N-diethyl-6-methoxy-pyridine-3-sulfonamide]",1000 to 10000
17,"CCN(CC)S(=O)(=O)c1cnc(OCc2ccccc2)c(N2[C@@H]3CC[C@H]2CN(C(=O)c2ccc(F)cc2Cl)C3)c1 [compound 034, 6-benzyloxy-5-[(1S,5R)-3-(2-chloro-4-fluoro-benzoyl)-3,8-diazabicyclo[3.2.1]octan-8-yl]-N,N-diethyl-pyridine-3-sulfonamide]",< 1000
18,CCN(CC)S(=O)(=O)c1cnc(O)c(N2[C@@H]3CC[C@H]2CN(C(=O)c2ccc(F)cc2Cl)C3)c1 [compound 035],10000 to 50000
19,"CCCN(C)S(=O)(=O)c1ccc(O)c(N2[C@@H]3CC[C@H]2CN(C(=O)c2ccc(F)cc2Cl)C3)c1 [compound 036, 3-[(1S,5R)-3-(2-chloro-4-fluoro-benzoyl)-3,8-diazabicyclo[3.2.1]octan-8-yl]-4-hydroxy-N-methyl-N-propyl-benzenesulfonamide]",1000 to 10000
20,"COc1ccc(S(=O)(=O)N2CCC(c3ccc(F)cc3)CC2)cc1N1[C@@H]2CC[C@H]1CN(C(=O)c1ccc(F)cc1Cl)C2 [compound 039, (2-chloro-4-fluoro-phenyl)-[(1S,5R)-8-[5-[[4-(4-fluorophenyl)-1-piperidyl]sulfonyl]-2-methoxy-phenyl]-3,8-diazabicyclo[3.2.1]octan-3-yl]methanone]",< 1000
21,"COc1ccc(S(=O)(=O)N2CCC(c3cccc(C#N)c3)CC2)cc1N1[C@@H]2CC[C@H]1CN(C(=O)c1ccc(F)cc1Cl)C2 [compound 040, 3-[1-[3-[(1S,5R)-3-(2-chloro-4-fluoro-benzoyl)-3,8-diazabicyclo[3.2.1]octan-8-yl]-4-methoxy-phenyl]sulfonyl-4-piperidyl]benzonitrile]",< 1000
22,"COC(=O)c1cccc(C2CCN(S(=O)(=O)c3ccc(OC)c(N4[C@@H]5CC[C@H]4CN(C(=O)c4ccc(F)cc4Cl)C5)c3)CC2)c1 [compound 041, methyl 3-[1-[3-[(1S,5R)-3-(2-chloro-4-fluoro-benzoyl)-3,8-diazabicyclo[3.2.1]octan-8-yl]-4-methoxy-phenyl]sulfonyl-4-piperidyl]benzoate]",< 1000
23,"COC(=O)c1ccc(C2CCN(S(=O)(=O)c3ccc(OC)c(N4[C@@H]5CC[C@H]4CN(C(=O)c4ccc(F)cc4Cl)C5)c3)CC2)cc1 [compound 042, methyl 4-[1-[3-[(1S,5R)-3-(2-chloro-4-fluoro-benzoyl)-3,8-diazabicyclo[3.2.1]octan-8-yl]-4-methoxy-phenyl]sulfonyl-4-piperidyl]benzoate]",< 1000
24,"COc1ccc(S(=O)(=O)N2CCC(c3cccc(-n4cccn4)c3)CC2)cc1N1[C@@H]2CC[C@H]1CN(C(=O)c1ccc(F)cc1Cl)C2 [compound 043, (2-chloro-4-fluoro-phenyl)-[(1S,5R)-8-[2-methoxy-5-[[4-(3-pyrazol-1-ylphenyl)-1-piperidyl]sulfonyl]phenyl]-3,8-diazabicyclo[3.2.1]octan-3-yl]methanone]",< 1000
25,"COc1ccc(S(=O)(=O)N2CCN(CCc3ccc(F)cc3)CC2)cc1N1[C@@H]2CC[C@H]1CN(C(=O)c1ccc(F)cc1Cl)C2 [compound 046, (2-chloro-4-fluoro-phenyl)-[(1S,5R)-8-[5-[4-[2-(4-fluorophenyl)ethyl]piperazin-1-yl]sulfonyl-2-methoxy-phenyl]-3,8-diazabicyclo[3.2.1]octan-3-yl]methanone]",< 1000
26,"COc1ccc(S(=O)(=O)N2CCN(CCc3ccc(Cl)cc3)CC2)cc1N1[C@@H]2CC[C@H]1CN(C(=O)c1ccc(F)cc1Cl)C2 [compound 048, (2-chloro-4-fluoro-phenyl)-[(1S,5R)-8-[5-[4-[2-(4-chlorophenyl)ethyl]piperazin-1-yl]sulfonyl-2-methoxy-phenyl]-3,8-diazabicyclo[3.2.1]octan-3-yl]methanone]",< 1000
27,"COc1ccc(S(=O)(=O)N2CCC(c3ccccc3)CC2)cc1N1[C@@H]2CC[C@H]1CN(C(=O)c1cc(F)c(F)cc1Cl)C2 [compound 049, (2-chloro-4,5-difluoro-phenyl)-[(1S,5R)-8-[2-methoxy-5-[(4-phenyl-1-piperidyl)sulfonyl]phenyl]-3,8-diazabicyclo[3.2.1]octan-3-yl]methanone]",< 1000
